Active and inactive are the calls of the source. The calls are words filed in the database; no cut-off is given here.

Experiment [1] can be described thus: Growth inhibition of human KB V1 cells after 72 hrs by MTT assay. The experiment is classed as functional, cell-based. Particulars: KB-V1, 72 h. (Formazan colour is commonly taken as a measure of viable cells.)
Experiment [2] relates to HepG2. The experiment in a line: Growth inhibition of doxorubicin resistant human HepG2 cells after 72 hrs by MTT assay. It counts as functional, cell-based. Particulars: HepG2, 72 h.
The test system of experiment [3] is K562. Nature of the experiment: Growth inhibition of doxorubicin-resistant human K562 cells after 72 hrs by SRB assay. The experiment is classed as functional, cell-based. The note with it: K562, 72 h. (In general: Sulforhodamine B stains cellular protein and so reports cell mass.)
Experiment [4] in a line: Growth inhibition of human KB3-1 cells after 72 hrs by MTT assay. The experiment is classed as functional, cell-based. Particulars: KB 3-1, 72 h.
The test system of experiment [5] is HepG2. Nature of the experiment: Growth inhibition of human HepG2 cells after 72 hrs by MTT assay. It counts as functional, cell-based. The note with it: HepG2, 72 h.
In experiment [6] the test system is K562. The note with it: Homo sapiens.
Experiment [7] relates to K562. The note with it: Homo sapiens. This is another data set of the same source.
Experiment [8] deals with K562. Nature of the experiment: Growth inhibition of human K562 cells after 72 hrs by SRB assay. The experiment is classed as functional, cell-based. Particulars: K562, 72 h.
Experiment [9] concerns HepG2. The experiment in a line: Inhibition of Pgp mediated Rh123 efflux in doxorubicin-resistant human HepG2 cells assessed as increase in cellular fluorescence of substrate at 10 uM. It counts as cell-based. On the set-up: scale not given: the % may be the effect or the level left.
In experiment [10] the test system is K562. Nature of the experiment: Inhibition of Pgp mediated Hoechst 33342 efflux in doxorubicin-resistant human K562 cells assessed as increase in cellular fluorescence of substrate at 10 uM. It counts as cell-based. Details: scale not given: the % may be the effect or the level left.
In experiment [11] the test system is HepG2. The experiment in a line: Inhibition of Pgp mediated Hoechst 33342 efflux in doxorubicin-resistant human HepG2 cells assessed as increase in cellular fluorescence of substrate at 10 uM. It counts as cell-based. On the set-up: scale not given: the % may be the effect or the level left.
For experiment [12], the system named is K562. The experiment in a line: Inhibition of human Pgp-ATPase activity in doxorubicin-resistant K562 cells. The experiment is classed as cell-based.
Experiment [13] concerns HepG2. Nature of the experiment: Increase in monoclonal antibody UIC2 binding to human Pgp in doxorubicin-resistant human HepG2 cells. The experiment is classed as cell-based.
In experiment [14] the test system is K562. Nature of the experiment: Inhibition of Pgp mediated Rh123 efflux in doxorubicin-resistant human K562 cells assessed as increase in cellular fluorescence of substrate at 10 uM. It counts as cell-based. On the set-up: scale not given: the % may be the effect or the level left.
The test system of experiment [15] is K562. The experiment in a line: Effect on Pgp expression level in doxorubicin resistant human K562 cells at 8 uM after 72 hrs by Western blot. The experiment is classed as functional, cell-based. On the technique in general: Immunoblotting shows a protein as a band on a membrane.
Experiment [16] has as its system K562. The experiment in a line: Effect on Pgp expression level in doxorubicin resistant human K562 cells at 20 uM after 72 hrs by Western blot. It counts as functional, cell-based.
Experiment [17] concerns HepG2. Nature of the experiment: Effect on Pgp expression level in doxorubicin resistant human HepG2 cells at 8 uM after 72 hrs by Western blot. It counts as functional, cell-based.
The test system of experiment [18] is KB-V1. The experiment in a line: Effect on Pgp expression level in human KB V1 cells at 20 uM after 72 hrs by Western blot. It counts as functional, cell-based.
The subject of experiment [19] is HepG2. Nature of the experiment: Effect on Pgp expression level in doxorubicin resistant human HepG2 cells at 20 uM after 72 hrs by Western blot. It counts as functional, cell-based.
In experiment [20] the test system is K562. Nature of the experiment: Effect on Pgp expression level in doxorubicin resistant human K562 cells at 4 uM after 72 hrs by Western blot. It counts as functional, cell-based.
Experiment [21] deals with HepG2. Nature of the experiment: Effect on Pgp expression level in doxorubicin resistant human HepG2 cells at 4 uM after 72 hrs by Western blot. The experiment is classed as functional, cell-based.
Experiment [22] concerns KB-V1. Nature of the experiment: Effect on Pgp expression level in human KB V1 cells at 4 uM after 72 hrs by Western blot. The experiment is classed as functional, cell-based.
Experiment [23] relates to HepG2. The experiment in a line: Inhibition of Pgp mediated Hoechst 33342 efflux in doxorubicin-resistant human HepG2 cells assessed as increase in cellular fluorescence of substrate at 5 uM. The experiment is classed as cell-based. Details: scale not given: the % may be the effect or the level left.
The subject of experiment [24] is K562. The experiment in a line: Inhibition of Pgp mediated Hoechst 33342 efflux in doxorubicin-resistant human K562 cells assessed as increase in cellular fluorescence of substrate at 5 uM. It counts as cell-based. On the set-up: scale not given: the % may be the effect or the level left.
The subject of experiment [25] is K562. Particulars: Homo sapiens. This is another data set of the same source.

As a reminder, the IC50 is the concentration at which inhibition is half-maximal. In the case of `CC(=O)O[C@H]1C(=O)[C@@]2(C)[C@H]([C@H](OC(=O)c3ccccc3)[C@]3(O)C[C@H](OC(=O)[C@H](O)[C@@H](NC(=O)c4ccccc4)c4ccccc4)C(C)=C1C3(C)C)[C@]1(OC(C)=O)CO[C@@H]1C[C@@H]2O` [PACLITAXEL], the half-inhibitory concentration (IC50) in [1] was 8 µM; in the experiment with HepG2 [2] it was 4.15 µM; with K562 [3], 4.14 µM; in experiment [4], 0.002 µM; in the experiment with HepG2 [5] it was 7 nM.
One may read the Km as the substrate concentration at which the rate is half of its maximum. In the case of `CC(=O)[C@H]1CC[C@H]2[C@@H]3CCC4=CC(=O)CC[C@]4(C)[C@H]3CC[C@]12C`, the Michaelis constant (Km) with K562 [6] worked out at 9.97 µM; in the experiment on K562 [7], 6.57 µM.
Regarding `COc1ccc(CC(N)C(=O)N[C@H]2[C@@H](O)[C@H](n3cnc4c(N(C)C)ncnc43)O[C@@H]2CO)cc1` (single isomer, unassigned) [PUROMYCIN], the half-maximal inhibitory concentration (IC50) came out at 79.3 µM in experiment [1]; 83.9 µM in the experiment with HepG2 [2]; 26.8 µM with K562 [3]; 0.22 µM in the experiment on K562 [8]; 0.21 µM in experiment [4]; 230 nM with HepG2 [5].
In the case of `CC1(C)Oc2ccc3ccc(=O)oc3c2C(OC(=O)/C=C/c2ccccc2)C1OC(=O)/C=C/c1ccccc1` (racemic), the Activity in the experiment with HepG2 [9] was 50%; with K562 [10], 100%; with HepG2 [11] it was 100%; in the experiment with K562 [14], 20%. Besides, the outcome in the experiment on K562 [12] was Active. Moreover, in the experiment on HepG2 [13], the result was inactive.
Turning to `COc1ccc(/C=C/C(=O)OC2c3c(ccc4ccc(=O)oc34)OC(C)(C)C2OC(=O)/C=C/c2ccc(OC)cc2)cc1` (racemic), the IC50 came out at 72.6 µM in the experiment on HepG2 [2], 81 µM with K562 [3], 67.6 µM with K562 [8] and 55200 nM in the experiment on HepG2 [5].
`COc1ccc(/C=C/C(=O)OC2c3c(ccc4ccc(=O)oc34)OC(C)(C)C2OC(=O)/C=C/c2ccc(OC)c(OC)c2)cc1OC` (racemic): the outcome in the experiment on K562 [15], in the experiment with K562 [16], in the experiment on HepG2 [17], in the experiment with KB-V1 [18], in the experiment on HepG2 [19] and in the experiment on K562 [20] was inactive. In addition, the result in the experiment with HepG2 [21] and with KB-V1 [22] was inactive. The IC50 in [1] was determined as 32.3 µM; with HepG2 [2] it was 76.3 µM; in the experiment on K562 [3], 70 µM; in the experiment on K562 [8], 54.4 µM; in experiment [4] it was 61.7 µM; with HepG2 [5], 54700 nM. For the same compound, the result with K562 [12] and with HepG2 [13] was Active. The Activity in the experiment with HepG2 [23] and with K562 [24] was 200% in each case.
On to `COc1ccc(CCN(C)CCC[C@](C#N)(c2ccc(OC)c(OC)c2)C(C)C)cc1OC`, for which the figures for the Michaelis-Menten constant (Km) in the experiment with K562 [6] and in the experiment on K562 [25] were 0.7 µM and 0.89 µM, respectively.
Regarding `CC[C@]1(O)C[C@@H]2CN(CCc3c([nH]c4ccccc34)[C@@](C(=O)OC)(c3cc4c(cc3OC)N(C)[C@H]3[C@@](O)(C(=O)OC)[C@H](OC(C)=O)[C@]5(CC)C=CCN6CC[C@]43[C@@H]65)C2)C1` [VINBLASTINE], the half-inhibitory concentration (IC50) in experiment [1] turned out to be 1.04 µM; in the experiment on HepG2 [2], 0.44 µM; in the experiment on K562 [3], 0.17 µM; in the experiment on K562 [8] it was 0.00088 µM; in experiment [4], 0.00011 µM; with HepG2 [5], 0.07 nM.
For the compound `COc1cccc2c1C(=O)c1c(O)c3c(c(O)c1C2=O)C[C@@](O)(C(=O)CO)C[C@@H]3O[C@H]1C[C@H](N)[C@H](O)[C@H](C)O1` [DOXORUBICIN], the results for the half-maximal inhibitory concentration (IC50) in [1] and in [4] were 32 µM and 0.18 µM, respectively.

For the origin of these results see ChEMBL document CHEMBL1143069, “Methoxylation of 3',4'-aromatic side chains improves P-glycoprotein inhibitory and multidrug resistance reversal activities of 7,8-pyranocoumarin against cancer cells” (Bioorg Med Chem, 2008).
